Experimental data taken from US8278268B2, “Combination therapy comprising glucose reabsorption inhibitors and PPAR modulators” (Ortho-McNeil Pharmaceutical, Inc., priority 2001, dated 2012).

Assays:
[1] = tested on: Na^+-glucose co-transporters located in chorionic membrane of the intestine and the kidney; details: cited from earlier work
[2] = subcutaneous daily administration; cited from earlier work
[3] = tested on: SGLT in the kidney; details: cited from earlier work
[4] = molecular target: T1, SGLT-2 in the kidney (Homo sapiens, UniProt P31639); details: compared with T-1095; cited from earlier work
T1 sequence (P31639 1-672): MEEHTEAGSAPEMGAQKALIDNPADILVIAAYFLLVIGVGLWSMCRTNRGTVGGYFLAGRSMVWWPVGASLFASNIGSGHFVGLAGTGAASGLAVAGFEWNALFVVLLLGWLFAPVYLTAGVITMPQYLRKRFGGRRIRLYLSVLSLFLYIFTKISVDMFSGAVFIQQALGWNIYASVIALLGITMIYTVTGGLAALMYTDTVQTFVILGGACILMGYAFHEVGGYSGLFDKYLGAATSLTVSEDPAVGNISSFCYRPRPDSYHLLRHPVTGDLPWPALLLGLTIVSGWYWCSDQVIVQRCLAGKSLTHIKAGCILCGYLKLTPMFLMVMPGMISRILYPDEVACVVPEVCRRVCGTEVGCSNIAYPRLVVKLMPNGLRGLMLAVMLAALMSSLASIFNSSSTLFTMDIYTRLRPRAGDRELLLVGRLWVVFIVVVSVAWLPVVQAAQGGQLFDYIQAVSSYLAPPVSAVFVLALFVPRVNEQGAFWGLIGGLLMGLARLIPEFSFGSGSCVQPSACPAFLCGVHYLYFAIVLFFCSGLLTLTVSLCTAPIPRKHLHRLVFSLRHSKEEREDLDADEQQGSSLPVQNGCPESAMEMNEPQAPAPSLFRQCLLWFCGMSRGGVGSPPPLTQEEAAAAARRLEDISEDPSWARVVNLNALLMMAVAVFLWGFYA

[5] = tested on: db/db mice; assay: Example 4: plasma glucose AUC following an oral glucose challenge; type: in vivo
Protocol: (§1) To examine the effect of T-1095 in combination with a PPARγ agonist, male db/db mice (6 weeks of age/Jackson Labs, […]), a PPARγ agonist such as MCC-555 (3 mg/kg-30 mg/kg), T-1095 (3-100 mg/kg), or MCC-555 plus T-1095. Mice (n=8 animals/group) received the test compounds or vehicle by oral gavage in a volume of 10 ml/kg of body weight. Body weight was recorded on day 1, prior to dosing, and twice a week for the duration of the study. One hour after the final dose, mice were weighed and anesthetized with CO2/O2 (70:30). Mice were then bled by retro-orbital sinus puncture into 2 mL heparinized polypropylene tubes on ice. Mice were then fasted overnight and bled by tail-clip prior to receiving a glucose challenge (2 g/kg p.o). Blood was collected at 30, 60.120, and 180 minutes after the challenge. Animals were then sacrificed and epididymal fat pads, livers, and hearts were excised, weighed and frozen for histological examination. Plasma samples were then assayed for glucose, HbA1c, insulin, and triglycerides.

[6] = tested on: female db/db mice; assay: Example 1: 11 day oral dosing of rosiglitazone +/− T-1095 in db/db mice; type: in vivo; details: mean
Protocol: (§2) Mice (n=8 animals/group) received the test compounds or vehicle by oral gavage in a volume of 10 ml/kg of body weight. Body weight was recorded on day 1, prior to dosing, and days 4, 8 and 11. Eighteen hours after the final dose, mice were weighed and anesthetized with CO2/O2 (70:30). Mice were then bled by retro-orbital sinus puncture into 2 mL heparinized polypropylene tubes on ice.
Plasma samples were then assayed for glucose, insulin, and triglycerides using Trinder reagent (Sigma Diagnostics), Elisa (Alpco) and GPO-Trinder (Sigma Diagnostics), respectively.
(§3) Livers were excised, weighed and frozen. […] Heart weight can be measured in an analogous manner.

[7] = tested on: female db/db mice; assay: Example 2: 11 day oral dosing of T-1095 +/− rosiglitazone in db/db mice; type: in vivo; details: for Body Weight Change / Liver Weight: −Rosi, mean
Protocol: as §2, with “ice. Plasma samples were then assayed for glucose, insulin, and triglycerides using Trinder reagent (Sigma Diagnostics), Elisa (Alpco) and GPO-Trinder (Sigma Diagnostics), respectively. Livers and hearts were excised, weighed and frozen.” for “ice.”
as §3

[8] = tested on: db/db mice; assay: Example 4: 32 day oral dosing of T-1095 +/− MCC-555 in db/db mice; type: in vivo; details: 32 day oral dosing
Protocol: as §1
Livers and hearts were excised, weighed and frozen.

[9] = tested on: diabetic rodent models (STZ-induced diabetic rat, yellow KK mice, db/db mice, Zucker Diabetic Fatty rats and GK rats); details: cited from earlier work

For `O=C(CCc1ccc(O)cc1)c1c(O)cc(O)cc1O[C@@H]1O[C@H](CO)[C@@H](O)[C@H](O)[C@H]1O` [phlorizin], the “inhibition of Na+-glucose co-transporters” value [1] is listed as “inhibits Na^+-glucose co-transporters” and the plasma glucose level [2] is listed as “the glucose level in a plasma is controlled at a normal level for a long time”.

In the case of `Cc1cc(O)c(C(=O)CCc2ccc3occc3c2)c(OC2OC(CO)C(O)C(O)C2O)c1` (stereo not shown) [T-1095A], the “inhibition of SGLT in the kidney” value [3] is listed as “selective and potent inhibitor of SGLT in the kidney” and the “inhibition of SGLT-2 in the kidney” value [4] is listed as “also a better substrate for the inhibition of SGLT-2 in the kidney”.

In the case of `COC(=O)OCC1OC(Oc2cc(C)cc(O)c2C(=O)CCc2ccc3occc3c2)C(O)C(O)C1O` (stereo not shown) [T-1095], the “AUC glucose % of Vehicle ± SEM” value ([5]; 3 mpk T-1095, 32 day oral dosing) is reported as 95.75 ± 8.45 % of Vehicle, the “AUC glucose % of Vehicle ± SEM” value ([5]; 10 mpk T-1095, 32 day oral dosing) is reported as 76.6 ± 6.85 % of Vehicle and the “AUC glucose % of Vehicle ± SEM” value ([5]; 30 mpk T-1095, 32 day oral dosing) is reported as 73.69 ± 5.7 % of Vehicle. For the same molecule, the “AUC glucose % of Vehicle ± SEM” value ([5]; 100 mpk T-1095, 32 day oral dosing) was 49.1 ± 3.21 % of Vehicle, the “Body Weight Change” value ([6]; T1095 100 mpk) was 3.96 g and the “Liver Weight” value ([6]; T1095 100 mpk) was 1.88 g. For the same molecule, the Glucose ([6]; T-1095 100 mpk) was “***405.13 mg/dL”, the Insulin ([6]; T-1095 100 mpk) was 93.88 ng/mL and the TG ([6]; T-1095 100 mpk) was 248.88 mg/dL. For the same molecule, the Glucose ([7]; 3 mpk T-1095, mean) was 286 mg/dL, the Insulin ([7]; 3 mpk T-1095, mean) was “**22.5 ng/ml” and the TG ([7]; 3 mpk T-1095, mean) was 263 mg/dL. For the same molecule, the Glucose ([7]; 10 mpk T-1095, mean) was “**263 mg/dL”, the Insulin ([7]; 10 mpk T-1095, mean) was 30.1 ng/mL and the TG ([7]; 10 mpk T-1095, mean) was 256 mg/dL. The Glucose ([7]; 30 mpk T-1095, mean) was 370 mg/dL, the Insulin ([7]; 30 mpk T-1095, mean) was 23.9 ng/mL and the TG ([7]; 30 mpk T-1095, mean) was 315 mg/dL. The Glucose ([7]; 100 mpk T-1095, mean) was “**242 mg/dL”, the Insulin ([7]; 100 mpk T-1095, mean) was 49.1 ng/mL and the TG ([7]; 100 mpk T-1095, mean) was “**243 mg/dL”. The “Body Weight Change” value ([7]; T-1095 3 mpk) was 3.0 g, the “Liver Weight” value ([7]; T-1095 3 mpk) was 1.63 g and the “Body Weight Change” value ([7]; T-1095 10 mpk) was 4.3 g. For the same molecule, the “Liver Weight” value ([7]; T-1095 10 mpk) was 1.87 g, the “Body Weight Change” value ([7]; T-1095 30 mpk) was 2.4 g and the “Liver Weight” value ([7]; T-1095 30 mpk) was 1.75 g. The “Body Weight Change” value ([7]; T-1095 100 mpk) was 2.3 g, the “Liver Weight” value ([7]; T-1095 100 mpk) was 1.73 g and the “% HbA1C +/− SEM” value ([8]; 3 mpk T-1095) was 6.10 ± 0.16%. For the same molecule, the “Body Weight Change (g) ± SEM” value ([8]; 3 mpk T-1095) was -6.09 ± 1.9 g, the Glucose ([8]; 3 mpk T-1095) was 490.3 ± 36 mg/dL and the “Heart Weight (g) ± SEM” value ([8]; 3 mpk T-1095) was 0.16 ± 0.02 g. For the same molecule, the Insulin ([8]; 3 mpk T-1095) was 10.7 ± 2.2 ng/dL, the “Liver Weight (g) ± SEM” value ([8]; 3 mpk T-1095) was 1.51 ± 0.1 g and the TG ([8]; 3 mpk T-1095) was 210.90 ± 24 mg/dL. For the same molecule, the “% HbA1C +/− SEM” value ([8]; 10 mpk T-1095) was 6.00 ± 0.29%, the “Body Weight Change (g) ± SEM” value ([8]; 10 mpk T-1095) was -0.99 ± 1.9 g and the Glucose ([8]; 10 mpk T-1095) was 413.1 ± 50 mg/dL. For the same molecule, the “Heart Weight (g) ± SEM” value ([8]; 10 mpk T-1095) was 0.13 ± 0.01 g, the Insulin ([8]; 10 mpk T-1095) was 11.4 ± 3.8 ng/dL and the “Liver Weight (g) ± SEM” value ([8]; 10 mpk T-1095) was 1.58 ± 0.08 g. For the same molecule, the TG ([8]; 10 mpk T-1095) was 178.10 ± 21 mg/dL, the “% HbA1C +/− SEM” value ([8]; 30 mpk T-1095) was 5.38 ± 0.23% and the “Body Weight Change (g) ± SEM” value ([8]; 30 mpk T-1095) was -2.44 ± 4.3 g. The Glucose ([8]; 30 mpk T-1095) was 380.6 ± 40 mg/dL, the “Heart Weight (g) ± SEM” value ([8]; 30 mpk T-1095) was 0.14 ± 0.01 g and the Insulin ([8]; 30 mpk T-1095) was 17.7 ± 5.1 ng/dL. For the same molecule, the “Liver Weight (g) ± SEM” value ([8]; 30 mpk T-1095) was 1.57 ± 0.09 g, the TG ([8]; 30 mpk T-1095) was 197.20 ± 26 mg/dL and the “% HbA1C +/− SEM” value ([8]; 100 mpk T-1095) was 4.96 ± 0.24 %. For the same molecule, the “Body Weight Change (g) ± SEM” value ([8]; 100 mpk T-1095) was -4.83 ± 2.9 g, the Glucose ([8]; 100 mpk T-1095) was 367.2 ± 42 mg/dL and the “Heart Weight (g) ± SEM” value ([8]; 100 mpk T-1095) was 0.14 ± 0.01 g. For the same molecule, the Insulin ([8]; 100 mpk T-1095) was 25.5 ± 6.2 ng/dL, the “Liver Weight (g) ± SEM” value ([8]; 100 mpk T-1095) was 1.64 ± 0.11 g and the TG ([8]; 100 mpk T-1095) was 151.20 ± 17 mg/dL. The pro-drug conversion ([9]; in vivo, liver) was “converted to its active form T-1095A in the liver”, the “oral glucose tolerance test and hyperinsulinemic euglycemic clamp” value ([9]; in vivo, po) was “improvement of glucose tolerance and the reduction of insulin resistance” and the “adverse signs during treatment” value ([9]; in vivo) was “no observed sign of adding weight, infection in the urinary tracts, electrolyte imbalance in plasma, changes in food intake, acute hypoglycemic shock nor pathological changes in the kidney”. The “elevated blood glucose levels” value ([9]; oral administration, rodent models of IDDM and NIDDM) was “suppress elevated blood glucose levels”, the “fed and fasting blood glucose levels and HbA1c” value ([9]; treatment for 3 weeks to 6 months, diabetic rodent models) was “reduced both fed and fasting blood glucose levels and HbA1c” and the “hyperinsulinemia, hypertriglyceridemia, microalbuminuria” value ([9]; yellow KK mice and other diabetic mice models) was “decrease in the hyperinsulinemia, hypertriglyceridemia, and the development of microalbuminuria”.
